Test results: US20210227854A1, “USE OF D-RIBOSE TO ENHANCE ADAPTATION TO PHYSICAL STRESS” (Bioenergy Life Science, Inc., priority 2014, published 2021)

How the values were obtained:
Type in all cases: in vivo, human
[1] = Tolerability of supplementation in the exercise study; settings: 10 g/day; 26 subjects
Procedure: A high-intensity exercise protocol was designed as a double-blind, crossover study to assess the influence of D-Ribose adaptation to physical stress. Specifically, D-Ribose and a control (Dextrose) were administered on separate subjects at a dosage of ten grams per day (10 g/day). A variety of physiological parameters were measured in the subjects administered D-Ribose (DR) supplementation (i.e., the DR subjects) versus the subjects administered Dextrose (DEX) supplementation (i.e., the DEX subjects).
The subjects consisted of twenty-six (26) healthy individual (10 females, 16 males). Each subject was randomly categorized as a DR subject or a DEX subject for the administration of supplementation. Furthermore, each subject was required to maintain his or her normal diet during the study, as well as performing his or her normal daily activities without performing any additional separate exercise sessions not part of the study protocol. […]

[2] = Blood urea nitrogen (BUN) around three days of high-intensity exercise; settings: for Change in BUN levels: Unfit Subgroup, p=0.88
Procedure: A high-intensity exercise protocol was designed as a double-blind, crossover study to assess the influence of D-Ribose adaptation to physical stress. Specifically, D-Ribose and a control (Dextrose) were administered on separate subjects at a dosage of ten grams per day (10 g/day). A variety of physiological parameters were measured in the subjects administered D-Ribose (DR) supplementation (i.e., the DR subjects) versus the subjects administered Dextrose (DEX) supplementation (i.e., the DEX subjects). To test D-ribose for adaptation, the twenty-six (26) adult subjects were further divided into two subgroups based on their fitness level (i.e., peak oxygen uptake (VO2 max) results. The first subgroup comprised subjects with higher VO2 max results (i.e., the “Fit Subgroup”) and the second subgroup comprised subjects with lower VO2 max results (i.e., the “Unfit Subgroup”). The Unfit Subgroup consisted of six (6) females and seven (7) males. The average age of the Unfit Subgroup was 27.7±3.4 years and the average peak VO2 of the Unfit Subgroup was 39.9±4.1 mL/kg/min. The Fit Subgroup consisted of four (4) females and nine (9) males. The average age of the Fit Subgroup was 27.6±3.5 year and the average peak VO2 of the Fit Subgroup was 52.2±4.3 mL/kg/min. […] Physiologic parameters were measured and hydration was provided to the subjects during the exercise session. […] Blood glucose was measured at all of the above time points except at twenty-four (24) hours post-exercise. Creatine kinase and BUN levels were measured at the pre-exercise (−10 min.) point during the three (3) days of exercise and twenty-four (24) hours post-exercise following the third (last) exercise session. Heart rate was recorded using a Polar HR monitor. Blood glucose levels were measured using a Bayer glucose monitor. Blood lactate levels were measured by an AccuSport Lactate Analyzer. Creatine kinase and BUN were measured utilizing an Abaxis Piccolo analyzer. Power data from the time trial performance test was assessed with the Sports Medicine Industries (SMI) software package.

[3] = Rating of perceived exertion (RPE) during exercise; settings: for RPE (Borg 6-20 scale): 10 g/day, mean ± SD
Procedure: A high-intensity exercise protocol was designed as a double-blind, crossover study to assess the influence of D-Ribose adaptation to physical stress. Specifically, D-Ribose and a control (Dextrose) were administered on separate subjects at a dosage of ten grams per day (10 g/day). A variety of physiological parameters were measured in the subjects administered D-Ribose (DR) supplementation (i.e., the DR subjects) versus the subjects administered Dextrose (DEX) supplementation (i.e., the DEX subjects). To test D-ribose for adaptation, the twenty-six (26) adult subjects were further divided into two subgroups based on their fitness level (i.e., peak oxygen uptake (VO2 max) results. The first subgroup comprised subjects with higher VO2 max results (i.e., the “Fit Subgroup”) and the second subgroup comprised subjects with lower VO2 max results (i.e., the “Unfit Subgroup”). The Unfit Subgroup consisted of six (6) females and seven (7) males. The average age of the Unfit Subgroup was 27.7±3.4 years and the average peak VO2 of the Unfit Subgroup was 39.9±4.1 mL/kg/min. The Fit Subgroup consisted of four (4) females and nine (9) males. The average age of the Fit Subgroup was 27.6±3.5 year and the average peak VO2 of the Fit Subgroup was 52.2±4.3 mL/kg/min. The protocol of the double-blind crossover study involved an initial baseline assessment, followed by two separate day assessments after consuming either a DR or DEX supplement. Each exercise session entailed measurements of creatine kinase (CK), blood urea nitrogen (BUN), glucose, heart rate (HR), rate of perceived exertion (RPE), and power output (PO) measurements. […] The Likert scale (0-10 points) was used to subjectively assess quadriceps muscle soreness, overall fatigue, appetite, perceived performance, and sleep quality. These scales were completed prior to and following each exercise session.

| Structure (SMILES) | Tolerability of supplement [1] | Change in BUN levels [2] | RPE ([3]; Fit Subgroup) | RPE (Borg 6-20 scale) ([3]; Fit Subgroup) | RPE (Borg 6-20 scale) ([3]; Unfit Subgroup) | RPE ([3]; Unfit Subgroup, p=0.003) | Average rate of perceived exertion, DEX subjects versus DR subjects (FIG. 1) ([3]; all measured points of the exercise sessions) | Change in BUN levels, DR versus DEX ([2]; Fit Subgroup) |
| --- | --- | --- | --- | --- | --- | --- | --- | --- |
| O=C[C@H](O)[C@@H](O)[C@H](O)[C@H](O)CO [DEX, Dextrose, reference compound] | without any subjective complaints or issues | 1.08±2.56 | 14±2 | 13.9 ± 1.6 | 13.5 ± 1.5 | 14±2 | greater | – |
| O=C[C@H](O)[C@H](O)[C@H](O)CO [DR, D-Ribose] | without any subjective complaints or issues | 0.93±2.66 | 14±2 | 13.6 ± 1.8 | 13.1 ± 1.6 | 13±2 | – | No differences |
